Results as given in PubChem BioAssay (NCI).
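Values below derive from 48-hour exposures of cells grown in 96-well plates, with endpoints linearly interpolated between the two concentrations bracketing the appropriate inhibition level. TGI is the concentration that stops growth completely.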

What was measured:
Experiment in all cases: NCI tumour cell line growth inhibition, 48 h
BT-549 breast = test system: BT-549 breast
CAKI-1 renal = test system: CAKI-1 renal
EKVX NSCLC = test system: EKVX NSCLC
HCC-2998 colon = test system: HCC-2998 colon
HOP-92 NSCLC = test system: HOP-92 NSCLC
HT29 colon = test system: HT29 colon
K-562 leukemia = test system: K-562 leukemia
MCF7 breast = test system: MCF7 breast
MDA-MB-435 = test system: MDA-MB-435
MDA-N = test system: MDA-N
NCI-H23 lung = test system: NCI-H23 lung
NCI-H460 lung = test system: NCI-H460 lung
OVCAR-5 ovarian = test system: OVCAR-5 ovarian
OVCAR-8 ovarian = test system: OVCAR-8 ovarian
RPMI-8226 leukemia = test system: RPMI-8226 leukemia
RXF 393 renal = test system: RXF 393 renal
SF-295 CNS = test system: SF-295 CNS
SK-MEL-28 melanoma = test system: SK-MEL-28 melanoma
UACC-62 melanoma = test system: UACC-62 melanoma

SMILES | TGI (BT-549 breast) [µM] | TGI (CAKI-1 renal) [µM] | TGI (EKVX NSCLC) [µM] | TGI (HCC-2998 colon) [µM] | TGI (HOP-92 NSCLC) [µM] | TGI (HT29 colon) [µM] | TGI (K-562 leukemia) [µM] | TGI (MCF7 breast) [µM] | TGI (MDA-MB-435) [µM] | TGI (MDA-N) [µM] | TGI (NCI-H23 lung) [µM] | TGI (NCI-H460 lung) [µM] | TGI (OVCAR-5 ovarian) [µM] | TGI (OVCAR-8 ovarian) [µM] | TGI (RPMI-8226 leukemia) [µM] | TGI (RXF 393 renal) [µM] | TGI (SF-295 CNS) [µM] | TGI (SK-MEL-28 melanoma) [µM] | TGI (UACC-62 melanoma) [µM]
CN(C)c1ccc(/C=N\NC(=O)c2ccccc2Nc2ccccc2C(=O)N/N=C/c2ccc(N(C)C)cc2)cc1 | > 100 | > 100 | > 100 | > 100 | > 100 | > 100 | > 100 | > 100 | > 100 | > 100 | > 100 | > 100 | > 100 | > 100 | > 100 | > 100 | > 100 | > 100 | > 100
COC(=O)C(Cc1c[nH]c2ccccc12)N=C1Nc2ccncc2S(=O)(=O)N1c1ccccc1 (stereo not drawn) | > 100 | > 100 | > 100 | 60.8 | 54.8 | 44.9 | 51.8 | > 100 | 87.3 | > 100 | > 100 | > 100 | > 100 | > 100 | 29.3 | 56.8 | > 100 | > 100 | 58.2
